In assay [1] the target is T1, HIV-1 protease (Human immunodeficiency virus type 1 group M subtype B, UniProt P04585). Nature of the assay: biochemical. Particulars: for inhibition at 0.37 µM: read-out: HIV-1 Protease % Inhib, dose 0.370 uM; for inhibition at 1.1 µM: read-out: HIV-1 Protease % Inhib, dose 1.100 uM; for inhibition at 3.3 µM: read-out: HIV-1 Protease % Inhib, dose 3.300 uM; for inhibition at 10 µM: read-out: HIV-1 Protease % Inhib, dose 10.000 uM; for inhibition at 30 µM: read-out: HIV-1 Protease % Inhib, dose 30.000 uM; for inhibition at 0.123 µM: read-out: HIV-1 Protease % Inhib, dose 0.123 uM; for inhibition at 0.41 µM: read-out: HIV-1 Protease % Inhib, dose 0.410 uM; for inhibition at 1.23 µM: read-out: HIV-1 Protease % Inhib, dose 1.230 uM; for inhibition at 3.7 µM: read-out: HIV-1 Protease % Inhib, dose 3.700 uM; for inhibition at 11 µM: read-out: HIV-1 Protease % Inhib, dose 11.000 uM; for inhibition at 33 µM: read-out: HIV-1 Protease % Inhib, dose 33.000 uM; for inhibition at 100 µM: read-out: HIV-1 Protease % Inhib, dose 100.000 uM; for inhibition at 1 µM: read-out: HIV-1 Protease % Inhib, dose 1.000 uM. An outline of the steps: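 Percent inhibition derived from fluorescent cleavage product separated by filtration after streptavidin-bead capture of intact biotin/FITC substrate. Reaction: enzyme (10 μl, 0.1 μM stock) with substrate (20 μl, 0.2 μM stock) and compound, 1 h at room temperature in dark, pH 5.5 acetate buffer with 1.0 M NaCl and 0.05% NP-40.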

The target of assay [2] is T1, HIV-1 protease. Nature of the assay: biochemical. An outline of the steps: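 Enzyme (40 nM stock) and substrate (200 μM stock) incubated with inhibitor, 24–48 two-fold serial concentrations, for 90 min at room temperature, then quenched with avidin beads. Nonlinear least-squares analysis gives Ki; a known-Ki inhibitor validates each run.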

Where “and” joins values, the source holds several entries; their conditions need not be identical. Equal entries are not always repeated. Where two headings read alike, the source gives them in different places.

For `CC(C)CCC1CCCCCc2c1oc(=O)c(C(c1ccccc1)C1CC1)c2O` (stereo not shown) [Example 132, 3-(Cyclopropyl-phenylmethyl)-4-hydroxy-10-(3-methyl-butyl)-5,6,7,8,9,10-hexahydro-cycloocta[b]pyran-2-one], at HIV-1 protease [1], the inhibition at 0.37 µM worked out at 39.5%, the inhibition at 1.1 µM came out at 76.2%, the inhibition at 3.3 µM is 98.1% and the inhibition at 10 µM came out at 104%. In addition, the inhibition at 30 µM on HIV-1 protease [1] amounted to 103%. The Ki at HIV-1 protease [2] (read-out: HIV-1 FITC KI) is 0.05 µM.

With `O=c1oc2c(c(O)c1C(c1ccccc1)C1CC1)CCCCCC2CC1CCOC1` (stereo not shown) [Example 133, 3-(Cyclopropyl-phenyl-methyl)-4-hydroxy-10-(tetrahydro-furan-3-ylmethyl)-5,6,7,8,9,10-hexahydro-cycloocta[b]pyran-2-one], on HIV-1 protease [1], the inhibition at 0.123 µM was determined as 19.1%, the inhibition at 0.37 µM came out at 71.2%, the inhibition at 1.1 µM worked out at 97.9% and the inhibition at 3.3 µM was determined as 101%. Moreover, on HIV-1 protease [1], the inhibition at 10 µM was determined as 101% and the inhibition at 30 µM worked out at 99.5%. Moreover, on HIV-1 protease [2] (read-out: HIV-1 FITC KI), the Ki was 0.012 µM.

For `CCC(O)C1CCCCCc2c1oc(=O)c(C(c1ccccc1)C1CC1)c2O` (stereo not shown) [Example 134, 3-(Cyclopropyl-phenyl-methyl)-4-hydroxy-10-(1-hydroxy-propyl)-5,6,7,8,9,10-hexahydro-cycloocta[b]pyran-2-one], at HIV-1 protease [1], the inhibition at 0.123 µM came to 54%, the inhibition at 0.37 µM amounted to 97.7%, the inhibition at 1.1 µM was 104% and the inhibition at 3.3 µM was 111%. Further, on HIV-1 protease [1], the inhibition at 10 µM came to 111% and the inhibition at 30 µM turned out to be 109%. Further, on HIV-1 protease [2] (read-out: HIV-1 FITC KI), the Ki stood at 0.015 µM.

For the molecule `C=CCCC1CCCCc2c1oc(=O)c(C(c1ccccc1)C1CC1)c2O` (stereo not shown) [Example 135, 9-But-3-enyl-3-(cyclopropyl-phenyl-methyl)4-hydroxy-6,7,8,9-tetrahydro-5H-cyclohepta[b]pyran-2-one], on HIV-1 protease [1], the inhibition at 0.41 µM amounted to 87.1%, the inhibition at 1.23 µM is 92.5%, the inhibition at 3.7 µM came to 96.7% and the inhibition at 11 µM is 82.4%. At HIV-1 protease [1], the inhibition at 33 µM is 71.2% and the inhibition at 100 µM stood at 63.6%. Besides, on HIV-1 protease [2] (read-out: HIV-1 FITC KI), the Ki is 0.03 µM.

Consider `O=c1oc2c(c(O)c1C(Cc1ccccc1)Cc1ccccc1)CCCCCC2` [Example 136, 3-(1-Benzyl-2-phenyl-ethyl)-4-hydroxy-5,6,7,8,9,10-hexahydro-cycloocta[b]pyran-2-one], for which, at HIV-1 protease [1], the inhibition at 0.41 µM stood at 56.6%, the inhibition at 1.23 µM worked out at 80.1%, the inhibition at 3.7 µM amounted to 90.1% and the inhibition at 11 µM is 92.4%. Besides, at HIV-1 protease [1], the inhibition at 33 µM stood at 91.6% and the inhibition at 100 µM amounted to 103%. For the same molecule, at HIV-1 protease [2] (read-out: HIV-1 FITC KI), the inhibition constant (Ki) was 0.108 µM.

As to `C=CS(=O)(=O)Nc1cccc(C(CC)c2c(O)c3ccccc3oc2=O)c1` (stereo not shown) [Example 137, Ethenesulfonic acid (3-(1-(4-hydroxy-2-oxo-2H-chromen-3-yl)-propyl)-phenyl)-amide], on HIV-1 protease [1], the inhibition at 1 µM was 11.3%, the inhibition at 10 µM stood at 62.9% and the inhibition at 100 µM was 89.1%. Besides, the inhibitory constant (Ki) at HIV-1 protease [2] (HIV-1 FITC KI) was 1.75 µM and 2.2 µM.

For `CCC(c1cccc(NS(=O)(=O)CC)c1)c1c(O)c2ccccc2oc1=O` (stereo not shown) [Example 138, Ethanesulfonic acid (3-(1-(4-hydroxy-2-oxo-2H-chromen-3-yl)-propyl)-phenyl)-amide], on HIV-1 protease [1], the inhibition at 1 µM was determined as 11.9%, the inhibition at 10 µM is 64.5% and the inhibition at 100 µM stood at 99.3%. Also, the Ki on HIV-1 protease [2] (HIV-1 FITC KI) amounted to 2.35 µM.

Take `CCC(c1cccc(NS(=O)(=O)CCN2C(=O)c3ccccc3C2=O)c1)c1c(O)c2ccccc2oc1=O` (stereo not shown) [Example 139, 2-(1,3-Dioxo-1,3-dihydro-isoindol-2-yl)-ethanesulfonic acid(3-(1-(4-hydroxy-2-oxo-2H-chromen-3-yl)-propyl)-phenyl)amide]: on HIV-1 protease [1], the inhibition at 1 µM is 36.6%, the inhibition at 10 µM came out at 80.7% and the inhibition at 100 µM was 99.2%. This molecule had an inhibitory constant (Ki) at HIV-1 protease [2] (HIV-1 FITC KI) of 0.5 µM.

Take `CCC(c1cccc(NS(=O)(=O)CCNC(=O)OC(C)(C)C)c1)c1c(O)c2ccccc2oc1=O` (stereo not shown) [Example 140, 2-(N-t-butyloxycarbonyl-amino)-ethanesulfonic acid (3-(1-(4-hydroxy-2-oxo-2H-chromen-3-yl)-propyl)-phenyl)-amide]: on HIV-1 protease [1], the inhibition at 0.41 µM is less than 10%, the inhibition at 1.23 µM is 16.5%, the inhibition at 3.7 µM came to 48.1% and the inhibition at 11 µM was found to be 71.8%. For the same molecule, on HIV-1 protease [1], the inhibition at 33 µM is 91.1% and the inhibition at 100 µM is 109%. Further, the inhibitory constant (Ki) at HIV-1 protease [2] (HIV-1 FITC KI) is 0.762 µM.

Regarding `O=c1oc2ccccc2c(O)c1C(Cc1ccccc1)Cc1ccccc1` [Example 146, 3-(1-Benzyl-2-phenyl-ethyl)4-hydroxy-chromen-2-one], at HIV-1 protease [1], the inhibition at 1 µM came to 54.4%, the inhibition at 10 µM is 92.7% and the inhibition at 100 µM is 98.6%. At HIV-1 protease [2] (HIV-1 FITC KI), this molecule returned a Ki of 0.13 µM.

With `CCC(c1cccc(C(=O)NC(C(=O)NCc2ccccn2)C(C)CC)c1)c1c(O)c2ccccc2oc1=O` (stereo not shown) [Example 149, 3-(1-(4-Hydroxy-2-oxo-2H-chromen-3-yl)-propyl)-N-(2-methyl-1-(pyridin-2-ylmethylcarbomoyl)-butyl)-benzamide], at HIV-1 protease [1], the inhibition at 1 µM came to 28.8%, the inhibition at 10 µM is 99.2% and the inhibition at 100 µM worked out at 97.3%. The Ki on HIV-1 protease [2] (HIV-1 FITC KI) turned out to be 0.405 µM.

As to `CC(C)(C)C(c1ccccc1)c1c(O)c2ccccc2oc1=O` (stereo not shown) [Example 152, 3-(2,2-Dimethyl-1-phenyl-propyl)-4-hydroxy-chromen-2-one], at HIV-1 protease [1], the inhibition at 0.41 µM was less than 10%, the inhibition at 1.23 µM came out at 14.2%, the inhibition at 3.7 µM came out at 35.5% and the inhibition at 11 µM is 73.7%. On HIV-1 protease [1], the inhibition at 33 µM is 102% and the inhibition at 100 µM came to 110%. The affinity at HIV-1 protease [2] (HIV-1 FITC KI) corresponds to a Ki of 1.01 µM.

As to `CCC(c1ccccc1)c1c(O)c2ccc(OCCOCCOCCOC)cc2oc1=O` (stereo not shown) [Example 154], on HIV-1 protease [1], the inhibition at 1 µM stood at 13.6%, the inhibition at 10 µM was 77.1% and the inhibition at 100 µM came out at 96%. The molecule further came in with an inhibition constant (Ki) at HIV-1 protease [2] (HIV-1 FITC KI) of 0.52 µM.

In the case of `O=c1oc2ccccc2c(O)c1C1CCN(Cc2ccccc2)c2ccccc21` (stereo not shown) [Example 159, 3-(1-Benzyl-1,2,3,4-tetrahydro-quinolin4-yl)-4-hydroxy-chromin-2-one], at HIV-1 protease [1], the inhibition at 0.41 µM was less than 10%, the inhibition at 1.23 µM was determined as 14.4%, the inhibition at 3.7 µM was found to be 39.8% and the inhibition at 11 µM was 74.3%. On HIV-1 protease [1], the inhibition at 33 µM worked out at 84.2% and the inhibition at 100 µM is 91.1%. Further, the inhibitory constant (Ki) at HIV-1 protease [2] (HIV-1 FITC KI) amounted to 2.4 µM.

On to `CC(CO)C1CCCCCc2c1oc(=O)c(C(c1ccccc1)C1CC1)c2O` (stereo not shown) [Example 161, 3-(Cyclopropylphenylmethyl)-5,6,7,8,9,10-hexahydro-4-hydroxy-10-(2-hydroxy-1-methylethyl)-2H-cyclooct[b]pyran-2-one], for which, on HIV-1 protease [1], the inhibition at 0.123 µM was determined as 20%, the inhibition at 0.37 µM amounted to 67.3%, the inhibition at 1.1 µM is 98.7% and the inhibition at 3.3 µM is 104%. In addition, on HIV-1 protease [1], the inhibition at 10 µM amounted to 106% and the inhibition at 30 µM was 111%. The Ki on HIV-1 protease [2] (read-out: HIV-1 FITC KI) worked out at 0.032 µM.

Turning to `CC(O)CC1CCCCCc2c1oc(=O)c(C(c1ccccc1)C1CC1)c2O` (stereo not shown) [Example 162, 3-(Cyclopropylphenylmethyl)-5,6,7,8,9,10-hexahydro-4-hydroxy-10-(2-hydroxypropyl)-2H-cycloocta[b]pyran-2-one], on HIV-1 protease [1], the inhibition at 0.123 µM is 14.8%, the inhibition at 0.37 µM was 56%, the inhibition at 1.1 µM was 92.2% and the inhibition at 3.3 µM stood at 99.3%. In addition, at HIV-1 protease [1], the inhibition at 10 µM was 102% and the inhibition at 30 µM worked out at 109%. At HIV-1 protease [2] (read-out: HIV-1 FITC KI), the Ki stood at 0.04 µM.

Regarding `O=c1oc2c(c(O)c1C(c1ccccc1)C1CC1)CCCCCC2CC1CO1` (stereo not shown) [Example 163, 3-(Cyclopropylphenylmethyl)-5,6,7,8,9,10-hexahydro-4-hydroxy-10-(oxiranylmethyl)-2H-cycloocta[b]pyran-2-one], at HIV-1 protease [1], the inhibition at 0.123 µM is 17.7%, the inhibition at 0.37 µM was 56%, the inhibition at 1.1 µM came out at 84.2% and the inhibition at 3.3 µM is 98.6%. For the same molecule, at HIV-1 protease [1], the inhibition at 10 µM is 107% and the inhibition at 30 µM was 105%. Further, the inhibition constant Ki at HIV-1 protease [2] (read-out: HIV-1 FITC KI) turned out to be 0.034 µM.

`Nc1cccc(C(c2c(O)c3c(oc2=O)CCCCCC3)C2CC2)c1` (stereo not shown) [Example 164, 3-[(3-Aminophenyl)cyclopropylmethyl]-5,6,7,8,9,10-hexahydro-4-hydroxy-2H-cycloocta[b]pyran-2-one]: on HIV-1 protease [1], the inhibition at 0.37 µM was found to be 14.6%, the inhibition at 1.1 µM worked out at 46.2%, the inhibition at 3.3 µM worked out at 87.3% and the inhibition at 10 µM came to 99.7%. Also, the inhibition at 30 µM at HIV-1 protease [1] was 102%. Besides, the Ki at HIV-1 protease [2] (read-out: HIV-1 FITC KI) was found to be 0.078 µM.

Broadly, the Ki is the equilibrium dissociation constant of an inhibitor or competing ligand from its target.

For the origin of these results see patent US5686486A, “4-hydroxy-benzopyran-2-ones and 4-hydroxy-cycloalkyl[b]pyran-2-ones useful to treat retroviral infections” (priority 1995, dated 1997).
